{"source": "patent US20250032486A1", "about": "“COMBINATION OF 5-AMINO-2,3-DIHYDRO-1,4-PHTALAZINEDIONE AND A 6'-METHOXYCINCHONAN-9-OL FOR USE IN THE TREATMENT OF CORONAVIRAL INFECTIONS” (METROPHARM AG, priority 2021, published 2025)", "key": {"SARS-CoV-2 [1]": {"test_system": "SARS-CoV-2", "settings": "from WO 2021/249667 and WO 2021/219244; cited from earlier work"}, "3-nitrotyrosine": {"test_system": "3-nitrotyrosine", "settings": "ex vivo lung, cigarette smoke; cited from earlier work"}, "SARS-CoV-2 [2]": {"test_system": "SARS-CoV-2", "format": "cell-based"}}, "note": "Where a name gives a salt, the structure may show the parent alone. Read-outs that look alike come from different tables or passages of the source."}
{"smiles": "Nc1cccc2c(=O)[nH][nH]c(=O)c12.[Na]", "note": "[5-amino-2,3-dihydro-1,4-phthalazinedione sodium salt]", "values": [{"measurement": "inhibition of the replication of SARS-CoV-2 in vitro", "setting": "SARS-CoV-2 [1]", "result": "dose-dependently inhibit"}, {"measurement": "reduction of 3-nitrotyrosine", "setting": "3-nitrotyrosine", "result": "nearly complete reduction"}, {"measurement": "amount of SARS-CoV-2 RNA copies (qRT-PCR-amplified RdRp, in relation to untreated cells)", "setting": "SARS-CoV-2 [2]", "result": "dose-dependent reduction"}]}
{"smiles": "C=C[C@H]1C[N@@]2CC[C@H]1C[C@@H]2[C@@H](O)c1ccnc2ccc(OC)cc12", "note": "[quinidine sulfate]", "values": [{"measurement": "amount of SARS-CoV-2 RNA copies (qRT-PCR-amplified RdRp, in relation to untreated cells)", "setting": "SARS-CoV-2 [2]; Example 3, Calu-3 cells, 3 days, luminol sodium salt 500/250/125 μM, quinidine sulfate 10/1/0.1 μM, alone and combined, n=2", "result": "dose-dependent reduction"}]}
{"smiles": "C=C[C@H]1CN2CC[C@H]1C[C@@H]2[C@@H](O)c1ccnc2ccc(OC)cc12", "note": "[quinidine, (+)-(9S)-6′-methoxycinchonan-9-ol]", "values": [{"measurement": "inhibition of the replication of SARS-CoV-2 in vitro", "setting": "SARS-CoV-2 [1]", "result": "Such an effect was also described"}]}
{"smiles": "C=C[C@H]1C[N@@]2CC[C@H]1C[C@H]2[C@H](O)c1ccnc2ccc(OC)cc12", "note": "[quinine sulfate]", "values": [{"measurement": "amount of SARS-CoV-2 RNA copies (qRT-PCR-amplified RdRp, in relation to untreated cells)", "setting": "SARS-CoV-2 [2]; Example 1, Calu-3 cells, 3 days, luminol sodium salt 500/250/125 μM, quinine sulfate 10/1/0.1 μM, alone and combined, n=3", "result": "dose-dependent reduction"}]}
{"smiles": "C=C[C@H]1CN2CC[C@H]1C[C@H]2[C@H](O)c1ccnc2ccc(OC)cc12", "note": "[quinine, (−)-(8a,9R)-6′-methoxycinchonan-9-ol]", "values": [{"measurement": "inhibition of the replication of SARS-CoV-2 in vitro", "setting": "SARS-CoV-2 [1]", "result": "Such an effect was also described"}]}
